In brackets after ≈: the same amount, converted by molar mass.
How the values were obtained:
Type in all cases: cell-based
[1] = test system: Enterobacter cloacae; test: MIC micro broth dilution assay; details: for MIC: Enterobacter cloacae
Outline: (§1)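 Multidrug-resistant clinical ESKAPE isolates were grown overnight (Gram-positives in TSB, Gram-negatives in LB), diluted 1:1,000 and exposed to decreasing compound concentrations in DMF (≤2.0% DMF).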

[2] = test system: Klebsiella pneumoniae; test: MIC micro broth dilution assay; details: for MIC: Klebsiella pneumoniae
Outline: as §1

[3] = test system: Acinetobacter baumannii biofilm; test: Minimum biofilm eradication concentration (MBEC) assay; details: 24 h biofilm, purified compound
Description: (§2) The minimum biofilm eradication concentration (MBEC) was determined in 96-well microtiter plates as follows. Broth cultures of ESKAPE strains were grown using the conditions described above. Biofilms for each of the ESKAPE pathogens were generated from these as we have previously described for S. aureus, however human serum was not used for non-staphylococcal organisms.^44 46 For all organisms, biofilms were developed by standardizing an overnight culture into fresh media to an OD600 of 0.5 and adding 150 μl into each well of a 96-well microtiter plate. […] These cultures were incubated at 37° C. overnight alongside no drug controls. After 24 hours, the media was removed from wells and the biofilm resuspended in phosphate buffered saline (PBS). Cultures were mixed by vigorous pipetting, before being serially diluted in PBS, and plated in duplicate on relevant agar. Plates were incubated at 37° C. for 24 hours, and CFUs determined by enumeration. Each analysis was performed using three technical replicates, and antibiofilm activity was determined by comparing treated to untreated samples.

[4] = test system: Klebsiella pneumoniae biofilm; test: as above; details: 24 h biofilm, purified compound
Description: as §2

[5] = test system: Enterobacter cloacae biofilm; test: as above; details: 24 h biofilm, purified compound
Description: as §2

[6] = test system: Pseudomonas aeruginosa biofilm; test: as above; details: 24 h biofilm, purified compound
Description: as §2

[7] = test system: Enterococcus faecium biofilm; test: as above; details: 24 h biofilm, purified compound
Description: as §2

[8] = test system: Staphylococcus aureus biofilm; test: as above; details: 24 h biofilm, purified compound
Description: as §2

[9] = test system: Staphylococcus aureus; test: MIC micro broth dilution assay; details: for MIC: Staphylococcus aureus
Outline: as §1

CCCCCCCN1C(=N)N(CCCC[C@H]2CNC(=N)N2CCc2cccc(C(F)(F)F)c2)C[C@@H]1CCCC [Compound 1]
stacked score activity, 100/MIC, E ([1]; E. cloacae): 20 | MIC ([1]; E. cloacae isolate 1404): 2 µM (≈ 1.1 µg/mL) | MIC ([1]; E. cloacae isolate 1405): 5 µM (≈ 2.75 µg/mL) | MIC ([1]; E. cloacae isolate 1430): 3 µM (≈ 1.65 µg/mL) | MIC ([1]; E. cloacae isolate 1431): 5 µM (≈ 2.75 µg/mL) | MIC ([1]; E. cloacae isolate 1445): 3 µM (≈ 1.65 µg/mL) | MIC ([1]; E. cloacae isolate 1446): 7 µM (≈ 3.86 µg/mL) | MIC ([1]; E. cloacae isolate 1447): 5 µM (≈ 2.75 µg/mL) | MIC ([1]; E. cloacae isolate 1448): 3 µM (≈ 1.65 µg/mL) | MIC ([1]; E. cloacae isolate 1454): 3 µM (≈ 1.65 µg/mL) | MIC ([1]; E. cloacae isolate 1455): 2 µM (≈ 1.1 µg/mL) | MIC ([1]; purified compound, Table 1): 1.63 µM (≈ 0.898 µg/mL) | concentration inhibiting 90% of isolates ([1]; panel of E. cloacae clinical isolates): 10 µM | stacked score activity, 100/MIC, K ([2]; K. pneumoniae): 33 | MIC ([2]; K. pneumoniae isolate 1408): 2 µM (≈ 1.1 µg/mL) | MIC ([2]; K. pneumoniae isolate 1409): 3 µM (≈ 1.65 µg/mL) | MIC ([2]; K. pneumoniae isolate 1410): 3 µM (≈ 1.65 µg/mL) | MIC ([2]; K. pneumoniae isolate 1411): 2 µM (≈ 1.1 µg/mL) | MIC ([2]; K. pneumoniae isolate 1412): 5 µM (≈ 2.75 µg/mL) | MIC ([2]; K. pneumoniae isolate 1413): 3 µM (≈ 1.65 µg/mL) | MIC ([2]; K. pneumoniae isolate 1433): 2 µM (≈ 1.1 µg/mL) | MIC ([2]; K. pneumoniae isolate 1434): 5 µM (≈ 2.75 µg/mL) | MIC ([2]; K. pneumoniae isolate 1440): 2 µM (≈ 1.1 µg/mL) | MIC ([2]; K. pneumoniae isolate 1441): 2 µM (≈ 1.1 µg/mL) | MIC ([2]; purified compound, Table 1): 1.63 µM (≈ 0.898 µg/mL) | concentration inhibiting 90% of isolates ([2]; panel of K. pneumoniae clinical isolates): 10 µM | MBEC50 [3]: 14.82 µM | MBEC50 [4]: 6.97 µM | MBEC50 [5]: 13.02 µM | MBEC50 [6]: 19.68 µM | MBEC50 [7]: 38.84 µM | MBEC50 [8]: 13.87 µM | stacked score activity, 100/MIC, S ([9]; S. aureus): 50 | MIC ([9]; S. aureus isolate 542): 2 µM (≈ 1.1 µg/mL) | MIC ([9]; S. aureus isolate 626): 2 µM (≈ 1.1 µg/mL) | MIC ([9]; S. aureus isolate 635): 2 µM (≈ 1.1 µg/mL) | MIC ([9]; S. aureus isolate 648): 2 µM (≈ 1.1 µg/mL) | MIC ([9]; S. aureus isolate 690): 2 µM (≈ 1.1 µg/mL) | MIC ([9]; S. aureus isolate 693): 2 µM (≈ 1.1 µg/mL) | MIC ([9]; S. aureus isolate 715): 2 µM (≈ 1.1 µg/mL) | MIC ([9]; S. aureus isolate 728): 2 µM (≈ 1.1 µg/mL) | MIC ([9]; S. aureus isolate 834): 2 µM (≈ 1.1 µg/mL) | MIC ([9]; S. aureus isolate 1043): 2 µM (≈ 1.1 µg/mL) | MIC ([9]; S. aureus isolate 1049): 2 µM (≈ 1.1 µg/mL) | MIC ([9]; purified compound, Table 1): 1.63 µM (≈ 0.898 µg/mL)

Reference: patent publication US20170065564A1, “BIS-CYCLIC GUANIDINE COMPOUND COMPOSITIONS, METHODS OF USE AND TREATMENT THEREOF” (University of South Florida, priority 2014, published 2017)
